One assay deals with EGR1 gene transcript. Kind of assay: Quantitative real-time PCR, EGR1 in N15C6 cells. It counts as cell-based, human. How it is done:
Quantitative Real-Time PCR. All quantitative real-time assays were conducted with an Applied Biosystems 7900HT instrument and reagents. Cells were grown to 70% confluence in […] dishes prior to RNA purification using the Trizol reagent (Invitrogen Life Technologies). Experiments utilizing U0126 were performed as above, except that cells were treated with DMSO (vehicle) or 5 uM U0126 for 2 hours, then grown in the presence or absence of CXCL12. For all experiments, one microgram of RNA was reverse transcribed by use of Superscript III reverse transcriptase (Invitrogen, Carlsbad, Calif.). The resulting cDNA was diluted 1:100. Real-time PCR was performed by use of Assays on Demand (Applied BioSystems, Foster City, Calif.) according to the manufacturer's instructions, except that Real Time Ready with Rox passive dye (QBioGene, Carlsbad, Calif.) was used in place of TaqMan Universal PCR Master Mix. […] Cycle numbers to threshold were calculated by subtracting averaged control from averaged experimental values, and Fold Gene Expression was calculated by raising […]. […]
Quantitative Real-Time PCR. All quantitative real-time assays were conducted as previously described with an Applied Biosystems 7900HT instrument and reagents (see, e.g., Begley L A, et al., J Biol. Chem. 2007 Sep. 14; 282(37):26767-74; herein incorporated by reference in its entirety). […]

The next assay has as its system ERK ½. Kind of assay: Western blot, ERK phosphorylation in N15C6 cells. It counts as cell-based, human. The protocol:
Western blot analysis Cells were lysed, proteins resolved by electrophoresis and electroblotting was carried out as described previously (Chaib H, et al., (2001) Cancer Res. 61, 2390-2394; incorporated herein by reference in its entirety). Proteins were detected using antibodies against phospho-ERK½ (Cell Signaling no. 9101), total ERK½ (Cell Signaling, no. 9102), CXCR4 (Abcam no. ab2074), CXCR7 (Abcam #Ab12870, Abcam #Ab12871, Abcam #38089), phospho-p65 (Rockland no. 100-401-264), total p65 (Rockland no. 100-4165), or beta-actin (Santa Cruz no. sc-1615), in conjunction with an ECL detection system.
Western Blot Analysis. Cells were lysed, proteins resolved by electrophoresis, and electroblotting was carried out as described previously (see, e.g.; Chaib H, et al., 2001 Cancer Res. 61, 2390-2394; incorporated herein by reference in its entirety). Proteins were detected using antibodies against phospho-ERK½ (Cell Signaling #9101), total ERK½ (Cell Signaling #9102), CXCR4 (Abcam #ab2074), Elk-1 (Cell Signaling #9182), Phospho Elk-1 (Cell Signaling #9181), or beta-actin (Santa Cruz #sc-1615), in conjunction with an ECL detection system.
Western Blot and Protein Analysis. Cells were lysed, proteins resolved by electrophoresis, and electroblotting was carried out as described previously except that 20 ug protein was electrophoresed per gel lane for N15C6 cells and 100 ug protein for LNCaP cells (see, e.g., Begley L, et al., Aging Cell. 2005 December; 4(6):291-8; Begley L A, et al., J Biol. Chem. 2007 Sep. 14; 282(37):26767-74; each herein incorporated by reference in their entireties). Proteins were detected using antibodies against phospho-ERK½ (Cell Signaling #9101), total ERK½ (Cell Signaling, #9102), phospho-p65, (Rockland #100-401-264), total p65 (Rockland #100-4165), STAT3 (9139), phospho-STAT3 (9138), beta-actin (Santa Cruz #sc-1615), or tubulin (Upstate, #DM1A) in conjunction with an ECL detection system. Secondary antibodies included goat anti-rabbit (Cell Signaling, #7074) and goat anti-mouse (Santa Cruz, #SC-2005), and both were used at a 1:5000 concentration. Immunoblots shown are representative of triplicate experiments. Densitometric quantitation of immunoblot films was accomplished by scanning the original films and converting the .tiff files to grayscale. Images were inverted, and mean band intensities were measured using ImageJ (www, followed by, .nih.gov). The mean intensity of adjacent background was also measured for each band and subtracted from band intensity.
On the technique in general: Immunoblotting shows a protein as a band on a membrane.

“Also recorded” adds a separate entry of the source.

Turning to `N#CC(=C(/N)Sc1ccccc1N)/C(C#N)=C(\N)Sc1ccccc1N` [U0126], the “effect on CXCL12-stimulated EGR1 gene transcription” value with EGR1 gene transcript (5 uM U0126 for 2 hours, then 10 pM CXCL12) is on record as “ablated; also recorded: further dampens”. For the same compound, the “effect on CXCL12-stimulated ERK ½ phosphorylation” value was “diminished” in the assay on ERK ½ (0.1 uM or 1.0 uM U0126, 1 pM CXCL12); “reduces” in the assay on ERK ½ (1 uM U0126 pre-treatment, 10 pM or 1000 pM CXCL12); “ablates” in the assay with ERK ½ (5 uM U0126 pre-treatment, 10 pM or 1000 pM CXCL12). Also, in the assay on ERK ½ (1.0 uM or 5.0 uM U0126, 1 pM, 10 pM or 1000 pM CXCL12), the “effect on CXCL12-stimulated ERK phosphorylation” value is “greatly diminishes”.
As for “CXCL5: recombinant human CXCL5 (R&D Systems, 254-X), CXC-type chemokine”, the “EGR1 transcript versus vehicle-treated cells” value in the assay on EGR1 gene transcript (1-100 pM CXCL5) was 4- to 8 fold. The “ERK ½ phosphorylation” value in the assay with ERK ½ (10 pM, 100 pM or 1 nM CXCL5) is “rapidly and transiently phosphorylated”.

The values above are taken from US7598028B2, “Compositions and methods for detecting and treating prostate disorders” (The Regents of the University of Michigan, priority 2006, dated 2009).
